Assay type in all cases: binding
Test [1] concerns the target T1, glycolipid transfer protein (GLTP) (Homo sapiens, UniProt Q9NZD2).
T1 sequence (Q9NZD2 2-209): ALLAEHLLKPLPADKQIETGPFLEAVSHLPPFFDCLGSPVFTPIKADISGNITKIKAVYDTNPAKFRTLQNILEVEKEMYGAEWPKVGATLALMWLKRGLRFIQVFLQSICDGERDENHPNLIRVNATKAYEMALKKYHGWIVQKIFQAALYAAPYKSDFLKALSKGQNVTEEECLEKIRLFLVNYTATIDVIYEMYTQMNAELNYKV
Kind of test: tryptophan fluorescence Kd (crystal structure 1SX6 from earlier paper). Details: recombinant human GLTP.

Test [2] has as its target T1, glycolipid transfer protein (GLTP). Kind of test: X-ray crystal structure. Details: recombinant human GLTP, His6- and S-tags removed by Factor Xa.
The target is the same in test [3]. Kind of test: X-ray crystal structure ([…] Å); tryptophan fluorescence Kd. Also on record: recombinant human GLTP, His6- and S-tags removed by Factor Xa.
The target is the same in test [4]. Kind of test: X-ray crystal structure; tryptophan fluorescence Kd. Details: recombinant human GLTP, His6- and S-tags removed by Factor Xa.

Structures are written as SMILES.

A word on the Kd: it is the equilibrium constant for the complex coming apart. With `CCCCCCCC/C=C\CCCCCCCC(=O)N[C@@H](CO[C@@H]1O[C@H](CO)[C@@H](O[C@@H]2O[C@H](CO)[C@H](O)[C@H](O)[C@H]2O)[C@H](O)[C@H]1O)[C@H](O)/C=C/CCCCCCCCCCCCC` [18:1 LacCer, N-cis-9-octadecenoyl lactosylsphingosine], in test [1], the Kd was 270 nM. As to `CCCCCCO[C@@H]1O[C@H](CO)[C@@H](O)[C@H](O)[C@H]1O` [n-hexyl-β-D-glucoside], in test [2], the X-ray crystal structure result is on record as “The sugar headgroup of n-hexyl-β-D-glucoside binds the GLTP recognition center in a manner similar to all GSL-GLTP complexes”.

For `CCCCCCCC/C=C\CCCCCCCCCCCCCC(=O)N[C@@H](CO[C@@H]1O[C@H](CO)[C@H](O)[C@H](O)[C@H]1O)[C@H](O)/C=C/CCCCCCCCCCCCC` [24:1 GalCer, N-cis-15-tetracosenoyl galactosyl-sphingosine], the Kd in test [3] came out at 250 nM.

For `CCCCC/C=C\C/C=C\CCCCCCCC(=O)N[C@@H](CO[C@@H]1O[C@H](CO)[C@H](O)[C@H](O)[C@H]1O)[C@H](O)/C=C/CCCCCCCCCCCCC` [18:2 GalCer, N-cis-N-cis-9,12-octadecenoyl galactosyl-sphingosine], in test [4], the Kd was 200 nM. Regarding `CCCCCCCCCCCCC/C=C/[C@@H](O)[C@H](CO[C@@H]1O[C@H](CO)[C@@H](O[C@@H]2O[C@H](CO)[C@H](O)[C@H](O)[C@H]2O)[C@H](O)[C@H]1O)NC(=O)CCCCCCC` [8:0 LacCer, N-octanoyl lactosylsphingosine], in test [4], the equilibrium dissociation constant (Kd) was 200 nM.
